Tests used:
[1] = tested on: patients with Familial Adenomatous Polyposis (FAP); experiment: Randomized, double-blind phase III trial in FAP patients: FAP-related events (efficacy); type: in vivo, human; details: for Mean time to first FRE: Kaplan-Meier estimated
Excerpt: Patients were stratified by anatomic site with highest polyp burden and surgical status: (a) post colectomy with rectal or ileal pouch polyposis (longest projected time to first FRE); (b) with duodenal polyposis (intermediate projected time to first FRE); and (c) pre-colectomy (shortest projected time to first FRE) prior to randomization to minimize treatment imbalance.
A stratified randomization procedure was used with stratification based on FAP-related time-to-first-event prognosis (see FIG. 1). The event prognosis groups were represented by 1) best (i.e., longest projected time to first FAP-related event)—rectal/pouch polyposis (Post-colectomy (≥3 years S/P IRA or IPAA with >10 polyps; any polyps >5 mm excised at baseline)), 2) intermediate—duodenal polyposis (Spigelman Stage 3 or 4 or Spigelman Stage 3 or 4 down-staged to Spigelman 1 or 2 within the past 6 months), and 3) worst—pre-colectomy. If a subject has two or more of these disease sites, the most severe prognosis stratum was assigned for randomization (e.g. worst>intermediate>best). Since an individual may have more than one disease site involved, the trial assessed time to any defined FAP-related event in the subject as a whole. In order to minimize potential treatment arm imbalance a centralized randomization process was used to balance among treatment groups within prognostic strata.
Lower GI Endoscopy: Patients were evaluated via colonoscopy, flexible or rigid procto-sigmoidoscopy during the screening phase. Biopsies, ablations, and snare excisions at baseline were performed per the clinician's standard of care. If considered eligible based on inclusion criteria, a grossly normal mucosa biopsy was obtained for baseline polyamine measurement. Still and video documentation of the colon (vide infra) or the residual rectum or entire pouch was also obtained for archiving. Polyp size was determined by visual comparison with biopsy forceps that can measure 5.0-5.5 mm in the fully open position. All randomized patients with an intact colon or rectum/pouch had baseline and on-study lower GI endoscopy procedures as part of this trial.
Upper GI Endoscopy: The duodenum was evaluated by forward-viewing and/or side-viewing gastroscopes (with still and video documentation with closed and open biopsy forceps near mucosa). All randomized patients with a duodenum had baseline and on-study UGI endoscopy as part of this trial. Subjects stratified to the duodenal group must have duodenal biopsies of all polyps 1 cm or larger to determine HGD and histology required for determining Stage 3 or 4 Spigelman status.
FAP-related primary events by disease site were as follows: • 1. Pre-operative, intact colon: Disease progression indicating need for colectomy with IRA or total procto-colectomy • 2. Retained rectum or pouch events include one or more of the following: • a) Excisional intervention by endoscopic snare or trans-anal excision to remove any polyp ≥10 mm in size (per pathology report) and/or pathologic evidence of high grade dysplasia. • b) Disease progression indicating need for proctectomy or pouch resection • 3. Duodenal disease includes the following: • a) Progression in Spigelman Stage to more advanced stage (Stage 2, 3 or 4) • b) Disease progression indicating need for excisional intervention (sub-mucosal resection, trans-duodenal excision, ampullectomy, duodenectomy, Whipple procedure) • c) Development of cancer
At six month intervals (+/−two weeks), subjects underwent repeat upper and lower endoscopy. […] Video recordings of all procedures and qualitative assessments were compared to the exam 6 months prior.

[2] = tested on: tumor putrescine levels; details: eflornithine infusion, rat-tumor model; cited from earlier work
[3] = tested on: patients with Familial Adenomatous Polyposis (FAP); experiment: Randomized, double-blind phase III trial in FAP patients: safety (adverse events); details: for Treatment-related serious adverse events: 1 patient each
[4] = tested on: prostoglandin E2 (PGE2); details: 300 mg/day, one month; cited from earlier work
[5] = disease site colon, number of subjects
[6] = disease site duodenum, number of subjects
[7] = disease site rectum and pouch, number of subjects
[8] = post-colectomy, rectal/ileal pouch stratum

SMILES: NCCCC(N)(C(=O)O)C(F)F (stereo not shown) [Eflornithine, 2,5-diamino-2-(difluoromethyl)pentanoic acid]
- Kaplan-Meier estimated mean time to first FRE ([1]; ITT population): 21.8 months
- Event-free rate ([1]; ITT population, cumulative): 59.6%
- FREs occurred, percent of patients ([1]; ITT population, cumulative): 40.4%
- Surgical FAP-related events, Colon: Event-free proportion ([1]; disease site colon): 76.9%
- Surgical FAP-related events, Colon: Colectomy [1, 5]: 0
- Surgical FAP-related events, Colon: Disease progression [1, 5]: 3
- Surgical FAP-related events, Duodenum: Event-free proportion ([1]; disease site duodenum): 72.7%
- Surgical FAP-related events, Duodenum: Disease progression [1, 6]: 3
- Surgical FAP-related events, Duodenum: Excisional intervention [1, 6]: 3
- Surgical FAP-related events, Duodenum: Spigelman stage progression [1, 6]: 12
- Surgical FAP-related events, Rectum and Pouch: Event-free proportion ([1]; disease site rectum and pouch): 87.2%
- Surgical FAP-related events, Rectum and Pouch: Disease progression [1, 7]: 5
- Surgical FAP-related events, Rectum and Pouch: Proctectomy/pouch resection [1, 7]: 1
- FRE type: Duodenal excision ([1]; duodenal polyposis stratum): 2
- FRE type: Duodenal excision and Spigelman stage progression ([1]; duodenal polyposis stratum): 1
- FRE type: Pouch resection ([1]; duodenal polyposis stratum): 2
- FRE type: Spigelman stage progression ([1]; duodenal polyposis stratum): 7
- FRE type: ≥10 mm polyp removed in rectum/pouch ([1]; duodenal polyposis stratum): 1
- Patients with FRE, % ([1]; duodenal polyposis stratum): (39.4) %
- Total FRE ([1]; duodenal polyposis stratum): 13
- Mean time to first FRE ([1]; duodenal polyposis stratum): 21.7 months
- Risk reduction versus combination ([1]; duodenal polyposis stratum, combination relative to the arm named): 24%
- Patients with FRE, % ([1]; duodenal polyposis stratum, listed as eflornithine): 39.4%
- Progression of lower gastrointestinal polyposis: surgeries ([1]; human, in vivo): 1
- Patients with duodenal polyposis progression who underwent duodenal excisional procedures ([1]; number of patients): 3
- FRE type: Pouch resection [1, 8]: 2
- FRE type: Proctocolectomy [1, 8]: 1
- FRE type: Spigelman stage progression [1, 8]: 1
- FRE type: ≥10 mm polyp removed in rectum/pouch [1, 8]: 1
- Patients with FRE, % [1, 8]: (41.7) %
- Total FRE [1, 8]: 5
- Mean time to first FRE [1, 8]: 15.7 months
- Risk reduction versus combination ([1]; post-colectomy, rectal/ileal pouch stratum, combination relative to the arm named): None
- Patients with FRE, % ([1]; post-colectomy, rectal/ileal pouch stratum, listed as eflornithine): 41.7%
- FRE type: Colectomy ([1]; pre-colectomy stratum): 2
- FRE type: Colectomy and Spigelman stage progression ([1]; pre-colectomy stratum): 1
- FRE type: Spigelman stage progression ([1]; pre-colectomy stratum): 2
- Patients with FRE, % ([1]; pre-colectomy stratum): (41.7) %
- Total FRE ([1]; pre-colectomy stratum): 5
- Mean time to first FRE ([1]; pre-colectomy stratum): 19.7 months
- Patients with FRE, % ([1]; pre-colectomy stratum, listed as eflornithine): 41.7%
- Risk reduction versus combination ([1]; pre-colectomy stratum, risk reduction for FRE of the combination relative to the arm named): 80%
- Event Rate of FAP-related Surgery Events in Lower GI ([1]; subjects with lower GI anatomy): 8/57 (14%)
- Lower GI surgery events: Need colectomy ([1]; subjects with lower GI anatomy): 3
- Lower GI surgery events: Need pouch resection ([1]; subjects with lower GI anatomy): 4
- Lower GI surgery events: Need proctectomy ([1]; subjects with lower GI anatomy): 1
- Lower GI surgery events: Total Surgical Events ([1]; subjects with lower GI anatomy): 8
- Progression of lower gastrointestinal polyposis: polypectomies ([1]; ≥10 mm in size and/or high grade dysplasia): 2
- Decrease in tumor putrescine levels [2]: 90%
- Discontinuations due to AEs, number of patients [3]: 5 patients
- Discontinuations due to AEs, percent of patients [3]: 8.8%
- TRAE reported by % of patients [3]: 55.4%
- Treatment-related hearing adverse events: Hearing loss N [3]: 1
- Treatment-related hearing adverse events: Tinnitus N [3]: 1
- Treatment-related serious adverse events [3]: stroke
- Treatment-related serious adverse events ([3]; listed as CPP-1X): Stroke
- Death ([3]; safety population): 0 n (%)
- Number of patients discontinuing due to a TRAE ([3]; safety population): 3 (5.4) n (%)
- Number of patients reporting TEAEs ([3]; safety population): 49 (87.5) n (%)
- Number of patients reporting TEAEs ≥ Grade 3 ([3]; safety population): 17 (30.4) n (%)
- Number of patients reporting TRAE: Abdominal distension ([3]; safety population): 4 (7.1) n (%)
- Number of patients reporting TRAE: Abdominal pain ([3]; safety population): 4 (7.1) n (%)
- Number of patients reporting TRAE: Alopecia ([3]; safety population): 0 n (%)
- Number of patients reporting TRAE: Decreased appetite ([3]; safety population): 3 (5.4) n (%)
- Number of patients reporting TRAE: Depression ([3]; safety population): 1 (1.8) n (%)
- Number of patients reporting TRAE: Diarrhea ([3]; safety population): 5 (8.9) n (%)
- Number of patients reporting TRAE: Dizziness ([3]; safety population): 3 (5.4) n (%)
- Number of patients reporting TRAE: Dyspepsia ([3]; safety population): 3 (5.4) n (%)
- Number of patients reporting TRAE: Fatigue ([3]; safety population): 3 (5.4) n (%)
- Number of patients reporting TRAE: Flatulence ([3]; safety population): 3 (5.4) n (%)
- Number of patients reporting TRAE: Frequent bowel movements ([3]; safety population): 3 (5.4) n (%)
- Number of patients reporting TRAE: Gastritis erosive ([3]; safety population): 0 n (%)
- Number of patients reporting TRAE: Headache ([3]; safety population): 8 (14.3) n (%)
- Number of patients reporting TRAE: Hematochezia ([3]; safety population): 4 (7.1) n (%)
- Number of patients reporting TRAE: Nausea ([3]; safety population): 8 (14.3) n (%)
- Number of patients reporting TRAE: Pruritus ([3]; safety population): 2 (3.6) n (%)
- Number of patients reporting TRAE: Rash ([3]; safety population): 0 n (%)
- Number of patients reporting TRAE: Rectal hemorrhage ([3]; safety population): 3 (5.4) n (%)
- Number of patients reporting TRAE: Thrombocytopenia ([3]; safety population): 1 (1.8) n (%)
- Number of patients reporting TRAE: Tinnitus ([3]; safety population): 1 (1.8) n (%)
- Number of patients reporting TRAE: Upper abdominal pain ([3]; safety population): 2 (3.6) n (%)
- Number of patients reporting TRAE: Vomiting ([3]; safety population): 5 (8.9) n (%)
- Number of patients reporting TRAEs ([3]; safety population): 31 (55.4) n (%)
- Number of patients reporting TRSAEs ([3]; safety population): 1 (1.8) n (%)

SMILES: CC(C)Cc1ccc(C(C)C(=O)O)cc1 (stereo not shown) [ibuprofen]
- PGE2 levels in flat mucosa [4]: significant decrease
